Where two headings read alike, the source gives them in different places.
What was measured:
[1] = tested on: Salmonella thyphimurium TA98; type: cell-based; conditions: for AMES TA98 mit S9: with rat liver S9; for AMES TA98 ohne S9: without S9
Experimental: Die Verbindung 2 wurde in einem Fluktuationsassay gegenüber den Mutanten-Stämmen TA98 und TA100 des Bakteriums Salmonella thyphimurium bei drei Konzentrationen (2.5; 5 und 10µM) auf Mutagenität hin untersucht. Die Mutagenitätsuntersuchungen wurden ferner in Gegenwart des Rattenleberenzyms S9 durchgeführt.

[2] = tested on: humanen Xenograft-Modellen; assay: In vivo activity in xenograft models; design: species or system human; conditions: Hautkrebs, Nierenzellkarzinom und Brustkrebs
Excerpt: Die in vivo Aktivität der Verbindung 2 wurde an verschiedenen humanen Xenograft-Modellen überprüft.

O=C(Nc1ccc2ncccc2c1)C(=O)c1cn(Cc2ccc(Cl)cc2)c2ccccc12 [Verbindung 2, 2-[1-(4-Chlor-benzyl)-1 H-indol-3-yl]-2-oxo-N-chinolin-6-yl-acetamid]
AMES TA98 mit S9 ([1]; 2.5 µM): inaktiv
AMES TA98 ohne S9 ([1]; 2.5 µM): inaktiv
AMES TA98 mit S9 ([1]; 5 µM): inaktiv
AMES TA98 ohne S9 ([1]; 5 µM): inaktiv
AMES TA98 mit S9 ([1]; 10 µM): inaktiv
AMES TA98 ohne S9 ([1]; 10 µM): inaktiv
Tumorwachstum in Xenograft-Modellen [2]: das Tumorwachstum in verschiedenen Xenograft-Modellen hemmt
